The record followed here is ChEMBL document CHEMBL1201862, “PubChem BioAssay data set” (2004).

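Briefly, cells in 96-well plates were exposed to five compound concentrations for 48 h, and endpoints were estimated by linear interpolation. The concentration for 50% growth inhibition is given as GI50.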 Calls of active or inactive are those of the source. Rule as the data show it: active = GI50 up to about 1.1 µM and inactive = higher.

Among the test systems are U-251; MDA-MB-435; T47D; MOLT-4; RPMI-8226; OVCAR-5; M14; LOX IMVI; OVCAR-3; A549; SK-MEL-28; SF-295; IGROV-1; Malme-3M; A498; NCI-H23; ACHN; SK-MEL-2; SNB-19; EKVX.
Common to all, as to assay: growth of human tumour cells (NCI), 48 h

As for `C[n+]1cccc(/C=C/c2ccc3cccc(O)c3n2)c1`, the GI50 is 49.2 µM (inactive) in the assay on U-251; > 100 µM (inactive) in the assay with MDA-MB-435; 83.2 µM (inactive) in the assay with T47D; 54.5 µM (inactive) with MOLT-4; > 100 µM (inactive) in the assay with RPMI-8226; > 100 µM (inactive) in the assay with OVCAR-5. For the same compound, the GI50 is > 100 µM (inactive) with M14; > 100 µM (inactive) in the assay with LOX IMVI; 27 µM (inactive) in the assay on OVCAR-3; 39.9 µM (inactive) in the assay with A549; > 100 µM (inactive) in the assay with SK-MEL-28; > 100 µM (inactive) in the assay with SF-295. Further, the GI50 was > 100 µM (inactive) in the assay on IGROV-1; 19.3 µM (inactive) in the assay on Malme-3M; > 100 µM (inactive) in the assay on A498; 58.2 µM (inactive) in the assay on NCI-H23; > 100 µM (inactive) with ACHN; > 100 µM (inactive) in the assay on SK-MEL-2. Besides, the GI50 is 42 µM (inactive) in the assay on SNB-19 and > 100 µM (inactive) with EKVX.
For `Clc1ccc(-c2cc(-c3nc4ccccc4[nH]3)no2)cc1`, the GI50 is 17 µM (inactive) in the assay with MDA-MB-435; 11.7 µM (inactive) in the assay with T47D; 16.1 µM (inactive) with MOLT-4; 24.3 µM (inactive) in the assay with RPMI-8226; 18.7 µM (inactive) in the assay on OVCAR-5; 18.4 µM (inactive) in the assay on M14. Moreover, the GI50 was 19.5 µM (inactive) in the assay on LOX IMVI; 18.5 µM (inactive) with OVCAR-3; 19.1 µM (inactive) in the assay with A549; 19.3 µM (inactive) in the assay on SK-MEL-28; 17.3 µM (inactive) in the assay with SF-295; 22.6 µM (inactive) with IGROV-1. Moreover, the GI50 with Malme-3M was 19.3 µM (inactive); with A498 it was 18.9 µM (inactive); with NCI-H23, 18.9 µM (inactive); in the assay with ACHN, 17.4 µM (inactive); with SK-MEL-2, 18.7 µM (inactive); in the assay on SNB-19, 19.6 µM (inactive). Further, the GI50 in the assay on EKVX was 16.9 µM (inactive).
With `C=C[C@@H]1C[C@]2(C(=O)OC)Cc3nc4ccccc4nc3CC(C(=O)OC)=C2O1`, the GI50 in the assay on U-251 is 92.7 µM (inactive); in the assay with MDA-MB-435, 47.8 µM (inactive); in the assay with T47D it was 85.5 µM (inactive); with MOLT-4 it was 42.5 µM (inactive); with RPMI-8226, 34 µM (inactive); in the assay with OVCAR-5, > 100 µM (inactive). Besides, the GI50 with M14 is 80.7 µM (inactive); with LOX IMVI it was 45.6 µM (inactive); with OVCAR-3, 23 µM (inactive); with A549 it was > 100 µM (inactive); in the assay on SK-MEL-28, 53.8 µM (inactive); in the assay with SF-295, 93.5 µM (inactive). For the same compound, the GI50 in the assay on IGROV-1 is 61.2 µM (inactive); in the assay with Malme-3M it was > 100 µM (inactive); in the assay on A498 it was > 100 µM (inactive); in the assay with NCI-H23, 69.8 µM (inactive); with ACHN, > 100 µM (inactive); in the assay with SK-MEL-2, > 100 µM (inactive). In addition, the GI50 in the assay with SNB-19 and in the assay on EKVX was > 100 µM (inactive) in each case.
`Cc1nc(Cl)c(Cl)c(Cl)n1`: the GI50 is 2.04 µM (inactive) in the assay with U-251; 0.531 µM (active) in the assay on MDA-MB-435; 0.596 µM (active) in the assay with T47D; < 0.0142 µM (active) with MOLT-4; < 0.0398 µM (active) in the assay on RPMI-8226; 1.32 µM (inactive) in the assay on OVCAR-5. For the same compound, the GI50 was 0.119 µM (active) in the assay on M14; 0.0596 µM (active) in the assay on LOX IMVI; 0.146 µM (active) in the assay on OVCAR-3; 1.49 µM (inactive) in the assay with A549; 0.311 µM (active) in the assay on SK-MEL-28; 1.86 µM (inactive) in the assay with SF-295. The GI50 is 0.173 µM (active) in the assay on IGROV-1; 0.202 µM (active) with Malme-3M; 2.32 µM (inactive) in the assay on A498; 0.526 µM (active) in the assay with NCI-H23; 0.324 µM (active) in the assay with ACHN; 0.51 µM (active) in the assay with SK-MEL-2. Also, the GI50 with SNB-19 is 1.39 µM (inactive); with EKVX, 0.357 µM (active).
On to `CNC(=O)CCCNC(=O)CCCC(=O)OC`, for which the GI50 in the assay with U-251, in the assay with MDA-MB-435, in the assay on T47D, in the assay on MOLT-4, in the assay on RPMI-8226 and in the assay with OVCAR-5 was > 100 µM (inactive) each time. Further, the GI50 in the assay on M14, in the assay with LOX IMVI, in the assay on OVCAR-3, in the assay on A549, with SK-MEL-28 and in the assay on SF-295 was > 100 µM (inactive) each time. Moreover, the GI50 in the assay on IGROV-1, in the assay with Malme-3M, with A498, in the assay on NCI-H23, in the assay on ACHN and with SK-MEL-2 was > 100 µM (inactive) in each case. Besides, the GI50 in the assay with SNB-19 and with EKVX was > 100 µM (inactive) each time.
Regarding `Clc1nncc2sc(-c3ccccc3)nc12`, the GI50 in the assay with U-251 was 15 µM (inactive); in the assay with MDA-MB-435 it was 17.4 µM (inactive); with T47D it was 28.5 µM (inactive); in the assay on MOLT-4, 28.8 µM (inactive); in the assay on RPMI-8226 it was 35.4 µM (inactive); in the assay on OVCAR-5 it was 83.2 µM (inactive). For the same compound, the GI50 with M14 was 17.7 µM (inactive); in the assay with LOX IMVI, 14.7 µM (inactive); with OVCAR-3 it was 6.41 µM (inactive); in the assay with A549, 53.8 µM (inactive); in the assay on SK-MEL-28, 12.8 µM (inactive); in the assay with SF-295, 27.1 µM (inactive). Moreover, the GI50 in the assay on IGROV-1 was 8.67 µM (inactive); in the assay on Malme-3M, 22.1 µM (inactive); with A498, 40.6 µM (inactive); in the assay on NCI-H23, 17.5 µM (inactive); with ACHN, 26.9 µM (inactive); with SK-MEL-2, 16.4 µM (inactive). For the same compound, the GI50 with SNB-19 is 17.9 µM (inactive); with EKVX, 4.12 µM (inactive).
With `Cc1nccn1S(=O)(=O)c1ccc(Br)cc1Br`, the GI50 in the assay on U-251 is 44.7 µM (inactive); with MDA-MB-435, 19.5 µM (inactive); in the assay on T47D it was 22.6 µM (inactive); with MOLT-4 it was 29 µM (inactive); with RPMI-8226 it was 19.5 µM (inactive); with OVCAR-5 it was 35.1 µM (inactive). For the same compound, the GI50 in the assay on M14 is 16.9 µM (inactive); in the assay on LOX IMVI, 40.9 µM (inactive); in the assay with OVCAR-3 it was 22.7 µM (inactive); with A549 it was 25.9 µM (inactive); in the assay on SK-MEL-28, 48.9 µM (inactive); with SF-295 it was 27.7 µM (inactive). Further, the GI50 is 41.8 µM (inactive) in the assay on IGROV-1; 50.8 µM (inactive) with Malme-3M; 35.9 µM (inactive) in the assay with A498; 36.1 µM (inactive) in the assay on NCI-H23; 54.1 µM (inactive) in the assay on ACHN; 22.1 µM (inactive) in the assay with SK-MEL-2. Besides, the GI50 is 25.9 µM (inactive) in the assay on SNB-19 and 26.9 µM (inactive) in the assay on EKVX.
For the compound `Oc1ccc2ccccc2c1-c1nnc(CCCCCCCCc2nnc(-c3c(O)ccc4ccccc34)o2)o1`, the GI50 is 1.05 µM (active) in the assay on U-251; 4.24 µM (inactive) with MDA-MB-435; 4 µM (inactive) in the assay with T47D; 0.449 µM (active) with MOLT-4; 2.72 µM (inactive) with RPMI-8226; 6.32 µM (inactive) in the assay on OVCAR-5. In addition, the GI50 with M14 was 1.34 µM (inactive); with LOX IMVI, 1.01 µM (active); in the assay with OVCAR-3, 0.314 µM (active); with A549, 3.85 µM (inactive); in the assay with SK-MEL-28, 18.1 µM (inactive); in the assay on SF-295, 3.61 µM (inactive). Further, the GI50 was 0.536 µM (active) with IGROV-1; 3.1 µM (inactive) in the assay on Malme-3M; 16.5 µM (inactive) in the assay with A498; 5.21 µM (inactive) with NCI-H23; 0.741 µM (active) with ACHN; 5.87 µM (inactive) with SK-MEL-2. Also, the GI50 in the assay on SNB-19 was 3.53 µM (inactive); in the assay on EKVX, 4.05 µM (inactive).
Regarding `CC(C)NCC(O)c1cc(OCc2ccccc2)c(OCc2ccccc2)cc1NC(=O)CCC(=O)O` (stereo not drawn), the GI50 in the assay on U-251 was 5.04 µM (inactive); in the assay on MDA-MB-435, 5.05 µM (inactive); in the assay on T47D it was 10 µM (inactive); in the assay with MOLT-4, 3.64 µM (inactive); in the assay with RPMI-8226, 2.81 µM (inactive); with OVCAR-5 it was 16.7 µM (inactive). The GI50 with M14 was 1.45 µM (inactive); with LOX IMVI, 1.57 µM (inactive); with OVCAR-3 it was 13.6 µM (inactive); with A549, 11.8 µM (inactive); in the assay with SK-MEL-28, 4.08 µM (inactive); with SF-295, 3.94 µM (inactive). Moreover, the GI50 in the assay on IGROV-1 is 11.4 µM (inactive); in the assay on Malme-3M, 15.2 µM (inactive); in the assay with A498 it was 11 µM (inactive); in the assay on NCI-H23, 13.2 µM (inactive); in the assay with ACHN it was 3.18 µM (inactive); with SK-MEL-2, 1.45 µM (inactive). For the same compound, the GI50 was 12.6 µM (inactive) with SNB-19 and 12.4 µM (inactive) in the assay on EKVX.
Take `CSc1c([S+](C)[O-])c2ccccc2n1C` (stereo not drawn): the GI50 in the assay on MDA-MB-435, in the assay on T47D, in the assay with MOLT-4, with RPMI-8226, in the assay with OVCAR-5 and in the assay on M14 was > 100 µM (inactive) throughout. The GI50 with LOX IMVI, in the assay on OVCAR-3, in the assay on A549, with SK-MEL-28, with SF-295 and in the assay on IGROV-1 was > 100 µM (inactive) throughout. Besides, the GI50 in the assay with Malme-3M, with A498, with NCI-H23, in the assay on ACHN, in the assay on SK-MEL-2 and with SNB-19 was > 100 µM (inactive) each time. Also, the GI50 with EKVX is > 100 µM (inactive).
